Test results from the NIST ThermoML archive (doi:10.1016/j.jct.2012.06.031).

Key:
[1] = 101 kPa, Liquid; for viscosity: Concentric cylinders viscometry; for mass density: Vibrating tube method
[2] = refractive index (Na D-line) (dimensionless); conditions: 101.33 kPa, Liquid, Standard Abbe refractometry
[3] = refractive index (Na D-line) (dimensionless); xn = mol fraction of the nth substance listed; conditions: 101 kPa, Liquid, Standard Abbe refractometry
[4] = xn = mol fraction of the nth substance listed; conditions: 101 kPa, Liquid; for viscosity: Concentric cylinders viscometry; for mass density: Vibrating tube method

CC(O)CO (stereo unspecified) [1,2-propanediol]
Conditions	mass density, [1] [kg/m3]	refractive index, [2]	viscosity, [1] [mPa·s]
288.15 K	1040.08	1.43411	81.21
293.15 K	1036.46	1.43247	58.75
298.15 K	1032.8	1.43081	43.44
303.15 K	1029.09	1.42915	32.75
308.15 K	1025.34	1.42751	25.16
313.15 K	1021.55	1.42581	19.65
318.15 K	1017.73	1.42407	15.58
323.15 K	1013.86	1.4223	12.55

OCC(O)CO [glycerol]
Conditions	mass density, [1] [kg/m3]	refractive index, [2]	viscosity, [1] [mPa·s]
288.15 K	1264.08	1.47552	2298.3
293.15 K	1261.03	1.47427	1425.1
298.15 K	1257.94	1.47301	911.98
303.15 K	1254.83	1.47175	600.83
308.15 K	1251.68	1.47048	406.93
313.15 K	1248.48	1.4692	282.61
318.15 K	1245.24	1.46791	201.03
323.15 K	1242.08	1.46674	147.15

OCC(O)CO [glycerol] + c1ccncc1
x2 = 0
Conditions	mass density, [4] [kg/m3]	refractive index, [3]	viscosity, [4] [mPa·s]
288.15 K	1264.08	1.47552	2298.3
293.15 K	1261.03	1.47427	1425.1
298.15 K	1257.94	1.47301	911.98
303.15 K	1254.83	1.47175	600.83
308.15 K	1251.68	1.47048	406.93
313.15 K	1248.48	1.4692	282.61
318.15 K	1245.24	1.46791	201.03
323.15 K	1242.08	1.46674	147.15

OCCCO [propan-1,3-diol]
Conditions	mass density, [1] [kg/m3]	refractive index, [2]	viscosity, [1] [mPa·s]
288.15 K	1056.12	1.44089	66.53
293.15 K	1053.02	1.43947	51.91
298.15 K	1049.91	1.43805	41.04
303.15 K	1046.79	1.43665	32.84
308.15 K	1043.64	1.43526	26.58
313.15 K	1040.49	1.43387	21.74
318.15 K	1037.31	1.43244	17.95
323.15 K	1034.12	1.43099	14.96

CCCO [propan-1-ol]
Conditions	mass density, [1] [kg/m3]	refractive index, [2]	viscosity, [1] [mPa·s]
288.15 K	807.947	1.3878	2.514
293.15 K	803.963	1.38576	2.208
298.15 K	799.953	1.38369	1.95
303.15 K	795.915	1.38162	1.727
308.15 K	791.84	1.37918	1.542
313.15 K	787.721	1.37695	1.378
318.15 K	783.553	1.37469	1.236
323.15 K	779.334	1.37231	1.124

CCCO [propan-1-ol] + c1ccncc1
x2 = 0
Conditions	mass density, [4] [kg/m3]	refractive index, [3]	viscosity, [4] [mPa·s]
288.15 K	807.947	1.3878	2.514
293.15 K	803.963	1.38576	2.208
298.15 K	799.953	1.38369	1.95
303.15 K	795.915	1.38162	1.727
308.15 K	791.84	1.37918	1.542
313.15 K	787.721	1.37695	1.378
318.15 K	783.553	1.37469	1.236
323.15 K	779.334	1.37231	1.124

c1ccncc1 [pyridine]
Conditions	mass density, [1] [kg/m3]	refractive index, [2]	viscosity, [1] [mPa·s]
288.15 K	988.061	1.51184	1.03
293.15 K	983.038	1.509	0.9588
298.15 K	978.006	1.50616	0.8943
303.15 K	972.967	1.50331	0.8355
308.15 K	967.913	1.50048	0.7837
313.15 K	962.849	1.49769	0.7354
318.15 K	957.769	1.49493	0.6912
323.15 K	952.673	1.49219	0.6507

c1ccncc1 [pyridine] + CC(O)CO
x1 = 1
Conditions	mass density, [4] [kg/m3]	refractive index, [3]	viscosity, [4] [mPa·s]
288.15 K	988.061	1.51184	1.03
293.15 K	983.038	1.509	0.9588
298.15 K	978.006	1.50616	0.8943
303.15 K	972.967	1.50331	0.8355
308.15 K	967.913	1.50048	0.7837
313.15 K	962.849	1.49769	0.7354
318.15 K	957.769	1.49493	0.6912
323.15 K	952.673	1.49219	0.6507

c1ccncc1 [pyridine] + OCCCO
x1 = 1
Conditions	mass density, [4] [kg/m3]	refractive index, [3]	viscosity, [4] [mPa·s]
288.15 K	988.061	1.51184	1.03
293.15 K	983.038	1.509	0.9588
298.15 K	978.006	1.50616	0.8943
303.15 K	972.967	1.50331	0.8355
308.15 K	967.913	1.50048	0.7837
313.15 K	962.849	1.49769	0.7354
318.15 K	957.769	1.49493	0.6912
323.15 K	952.673	1.49219	0.6507
